# Experimental data published in paper PMC3555145 (Biomacromolecules, 2012).
# Tested on: Raw 264.7 and HeLa cells
# Details: rhodamine-labeled polypeptide, n = 3
substance,measurement,setting,value
poly(ethylene glycol)-block-poly(O-pentenyl-L-serine-graft-cysteamine) [PEG112-b-(PPELS70-g-CA)],time of maximal cell uptake level post polypeptide treatment,2 μg/well,2 h
same,dependence of cell uptake level on incubation time and feeding amount,"0.5-5 μg/well for 2 h, 2 μg/well for 0.4-4 h",increased with incubation time and the feeding amount
